{
  "source": "patent US20080220528A1",
  "about": "“HIV GENE CLONING STRATEGY” (SCHERING CORPORATION, priority 2006, published 2008)",
  "key": {"[1]": {"system": "RU570-VCV virus", "experiment": "Viral replication assay in PBL (p24 ELISA), vicriviroc-passaged culture", "type": "cell-based, HIV-1", "experimental": "The Hut 78 derived PM-1 (Lusso, P., et al (1995). J Virol 69(6), 3712-20) T-cell line was infected with a parental PBL stock of HIV-1 RU570 for one week prior to the initiation of vicriviroc selection starting at 0.1 nM. PM-1 cell cultures were passaged weekly by transferring 1 ml of cell culture supernatant and one tenth of the infected cells into fresh PM-1 cultures (1-2×10^6) in the absence (passage control culture, RU570-PC) or presence (RU570-VCV) of vicriviroc. Culture supernatants were subsequently used to re-infect fresh PM-1 cells weekly. Viral supernatants and infected cells were collected periodically for p24 antigen titers, vicriviroc sensitivity testing in PBL described below in the viral replication assay section, and sequence analysis. […] To select for minor populations of highly resistant variants that may have emerged, the concentration of vicriviroc was escalated to 10 μM at week 36 and cultures were maintained in 10 μM vicriviroc until viral replication remained consistent. By approximately week 56, VCV-treated cultures were replicating to similar levels compared to the passage control cultures and maintained consistently robust growth up to 93 weeks when cultures were terminated.\nIL-2/PHA-stimulated PBL were seeded into 96-well plates (200,000 cells/well) pretreated with an equal volume of medium plus vicriviroc or medium only at 37° C. for 1 hour. The plates were centrifuged at 300 g for 10 min and the media aspirated and replaced with 20 μl of fresh medium with or without compound. The cells were then infected in triplicate using 20 μl of viral supernatant (RU570) from 3 hr to overnight at 37° C. The cells were washed twice with PBS to remove residual viral inoculums and cultured in the presence or absence of vicriviroc for 4-6 days. Viral replication was assessed by measuring p24 antigen production by ELISA. The IC50 and IC90 values for vicriviroc susceptibility with these viruses was determined by analyzing dose-response curves using a 4-parameter logistic curve fit model with Prism GraphPad Software Version 4.0 (San Diego, Calif.)."}, "[2]": {"system": "RU570 passage control virus (RU570-PC)", "experiment": "Viral replication assay in PBL (p24 ELISA), passage control culture", "type": "cell-based, HIV-1", "conditions": "through 93 weeks of cell culture", "experimental": "The Hut 78 derived PM-1 (Lusso, P., et al (1995). J Virol 69(6), 3712-20) T-cell line was infected with a parental PBL stock of HIV-1 RU570 for one week prior to the initiation of vicriviroc selection starting at 0.1 nM. PM-1 cell cultures were passaged weekly by transferring 1 ml of cell culture supernatant and one tenth of the infected cells into fresh PM-1 cultures (1-2×10^6) in the absence (passage control culture, RU570-PC) or presence (RU570-VCV) of vicriviroc. Culture supernatants were subsequently used to re-infect fresh PM-1 cells weekly. Viral supernatants and infected cells were collected periodically for p24 antigen titers, vicriviroc sensitivity testing in PBL described below in the viral replication assay section, and sequence analysis. […]\nIL-2/PHA-stimulated PBL were seeded into 96-well plates (200,000 cells/well) pretreated with an equal volume of medium plus vicriviroc or medium only at 37° C. for 1 hour. […] Viral replication was assessed by measuring p24 antigen production by ELISA. The IC50 and IC90 values for vicriviroc susceptibility with these viruses was determined by analyzing dose-response curves using a 4-parameter logistic curve fit model with Prism GraphPad Software Version 4.0 (San Diego, Calif.)."}, "[3]": {"system": "HIV-1 particles pseudotyped with ADA gp160", "experiment": "Single-cycle HIV-1 pseudovirus luciferase assay in U87-CD4-CCR5 cells", "type": "cell-based", "experimental": "(§1) HIV-1 pseudoviruses were produced in 293T cells by calcium phosphate transfection of pNL4-3E^−Luc^+ and HIV-1 envelope expression vectors using ProFection® Mammalian Transfection system (Promega Corp., Madison, Wis.). HIV-1 pseudovirus was harvested in culture supernatants 48 hrs post-transfection and supernatants were clarified of cell debris by centrifugation at 1500 g for 10 min. Single-cycle infection assays were generally performed on the same day HIV-1 pseudovirus was harvested. To assess susceptibility to CCR5 co-receptor antagonists, 5,000 U87-CD4-CCR5 cells/well were seeded into 96-well luminometer plates (Perkin Elmer) and plates were incubated overnight at 37° C. The next day serial 10-fold dilutions of inhibitor in cell culture medium (10 μM→1.0 μM) were added to wells one hour prior to the addition of HIV-1 pseudovirus plus inhibitor. Plates were incubated for 72 hours, and luciferase activity was analyzed by adding 50 μl of BrightGlo™ luciferase assay buffer and plates were read on a Dynex luminometer (300 mSec/well). Relative light units (RLU) were normalized to virus dose, measured as ng p24, and percent inhibition, was calculated as follows: 100−[average normalized RLU for HIV-1 pseudovirus plus drug/average normalized RLU for HIV-1 pseudovirus from control wells without drug]×100. Dose-response data was analyzed using a non-linear regression 4-parameter logistic curve fit program with Prism GraphPad Software Version 4.0 (San Diego, Calif.)."}, "[4]": {"system": "HIV-1 particles pseudotyped with RU570-PC gp160 envelope", "experiment": "Single-cycle HIV-1 pseudovirus luciferase assay in U87-CD4-CCR5 cells", "type": "cell-based", "experimental": "as §1"}, "[5]": {"system": "HIV-1 particles pseudotyped with VCVres chimeric RU570-PC envelopes (RU570-PC-C2-C3res, -C2-V4res, -C2-V5res)", "experiment": "Single-cycle HIV-1 pseudovirus luciferase assay in U87-CD4-CCR5 cells", "type": "cell-based", "experimental": "as §1"}, "[6]": {"system": "pseudoviruses with ADA-C2-V5res chimeric envelope", "experiment": "Single-cycle HIV-1 pseudovirus luciferase assay in U87-CD4-CCR5 cells", "type": "cell-based", "experimental": "(§2) Homologous recombination of the V2-C5 gp120 fragment from RU570-PC gp120 clone #16 and RU570-VCVres gp120 clone #8 was performed following restriction endonuclease digestion of constructs with MfeI and gel purification of the 838 bp V2-C5 gp120 fragments (HXB2 gp120 nucleotides 533-1431; gp120 at position 185-478). The pSV7d-ADA gp160 expression vector was digested with BglII and BstZ17I restriction endonucleases, alkaline phosphatase treated and the 5.1 kb vector was gel purified on 1% agarose. A 50:1 ratio of V2-C5res gp120 fragment to vector was used to transform chemically-competent BJ5183 E. coli, and individual colonies were screened by PCR for successful recombination.\nas §1"}, "[7]": {"system": "pseudoviruses with ADA-V3res chimeric envelope", "experiment": "Single-cycle HIV-1 pseudovirus luciferase assay in U87-CD4-CCR5 cells", "type": "cell-based", "experimental": "as §2, §1"}, "[8]": {"system": "pseudovirus with RU570-PC-C2-V5res chimeric envelope", "experiment": "Single-cycle HIV-1 pseudovirus assay, effect of viral inoculum", "type": "cell-based", "conditions": "very high inoculum, 90 ng p24", "experimental": "as §1, with “The next day serial 10-fold dilutions of inhibitor in cell culture medium (10 μM→1.0 μM) were added to wells one hour prior to the addition of HIV-1 pseudovirus plus inhibitor.” left out"}, "[9]": {"system": "NL4-3-AD8 virus", "experiment": "Vicriviroc susceptibility assay with replication competent virus in U87-CD4-CCR5 cells", "type": "cell-based, HIV-1", "conditions": "Human immunodeficiency virus 1, NL43, multi-cycle infection", "from_the_text": "(§3) The pNL4-3-AD8 molecular clone was modified by deleting 650 bp of cDNA sequence flanking the 5′LTR, thereby creating a unique Stu I site within gp120. The ADA-V3res and ADA-C2-V5res chimeric envelopes were digested with StuI and AleI restriction endonucleases and the 1.2 kb env fragments corresponding to at 203-608 (HXB2 gp160 aa coordinates) were gel purified on 1% agarose. These fragments were cloned directly into pNL4-3-AD8 digested with the same restriction endonucleases and all constructs were verified by DNA sequence analysis.\n(§4) 293T cells were transfected with pNL4-3-AD8, pNL4-3-AD8-C2-V5res, and pNL4-3-AD8-V3res molecular clones using Superfect transfection reagent (Qiagen Corp., Vencia, Calif.) and HIV-1 virus was harvested in supernatants 48 hr post transfection.\n(§5) CCR5 inhibitor resistance was previously reported to be influenced by the assay format in which resistance is evaluated (Pugach, P., et al (2007). Virology 361(1), 212-28). […] In order to evaluate differences in susceptibility profiles between single-cycle and multi-cycle infection assays in U87-CD4-CCR5 cells, we generated replication competent viruses expressing the chimeric gp120 envelopes. Restriction fragments corresponding to HXB2 aa 203-608 within ADA-V3res and ADA-C2-V5res chimeric envelopes were transferred to an NL4-3-AD8 HIV-1 molecular clone by unique restriction-site digestion and relegation. […]"}, "[10]": {"system": "NL4-3-AD8-V3res virus", "experiment": "Vicriviroc susceptibility assay with replication competent virus in U87-CD4-CCR5 cells", "type": "cell-based, HIV-1", "conditions": "Human immunodeficiency virus 1, NL43, multi-cycle infection", "from_the_text": "as §3, §4, §5"}, "[11]": {"system": "replication competent HIV-1 virus containing the ADA-C2-V5res chimeric envelope sequence (NL4-3-AD8-C2-V5res)", "experiment": "Vicriviroc susceptibility assay with replication competent virus in U87-CD4-CCR5 cells", "type": "cell-based", "conditions": "multi-cycle infection", "from_the_text": "as §3, §4, §5"}, "[12]": {"conditions": "Human immunodeficiency virus 1, U87/CD4/CCR5"}},
  "data": [
    {"smiles": "COC[C@@H](c1ccc(C(F)(F)F)cc1)N1CCN(C2(C)CCN(C(=O)c3c(C)ncnc3C)CC2)C[C@@H]1C", "note": "[vicriviroc, Vicriviroc]", "values": [
      {"measurement": "IC50", "setting": "[1]; Human immunodeficiency virus 1, RU570-VCV culture until week 45, PBL", "result": "< 50", "unit": "nM"},
      {"measurement": "maximum percent inhibition", "setting": "[1]; RU570-VCV culture until week 45, PBL", "result": 100, "unit": "%"},
      {"measurement": "maximal percent inhibition", "setting": "[1]; RU570-VCV culture week 45, PBL", "result": "approximately 76%"},
      {"measurement": "maximal percent inhibition", "setting": "[1]; RU570-VCV culture week 47, PBL", "result": "~45", "unit": "%"},
      {"measurement": "maximum percent inhibition", "setting": "[1]; RU570-VCV culture week 93, PBL, flat dose-response curve", "result": "approximately 30%"},
      {"measurement": "susceptibility to vicriviroc", "setting": "[2]", "result": "remained susceptible"},
      {"measurement": "IC50", "setting": "[3]; [12]", "result": 0.04, "unit": "nM"},
      {"measurement": "Emax", "setting": "[3]; Human immunodeficiency virus 1, U87/CD4/CCR5, read-out: maximum response, percent inhibition", "result": 100, "unit": "%"},
      {"measurement": "MI values", "setting": "[3]; parental ADA gp160, regardless of the virus concentration (data not shown)", "result": 100, "unit": "%"},
      {"measurement": "IC50", "setting": "[4]; [12]", "result": 0.1, "unit": "nM"},
      {"measurement": "MI values", "setting": "[4]; RU570-PC 160 construct, regardless of the virus concentration (data not shown)", "result": 100, "unit": "%"},
      {"measurement": "maximum inhibition", "setting": "[4]; {}", "result": 100, "unit": "%"},
      {"measurement": "IC50", "setting": "[5]; [12]", "result": "0.07 to 0.2", "unit": "nM"},
      {"measurement": "inhibition at 0.1 µM", "setting": "[5]; Human immunodeficiency virus 1, U87/CD4/CCR5, read-out: maximum inhibition levels", "result": 100, "unit": "%"},
      {"measurement": "maximum inhibition (MI), plateau level", "setting": "[6]; 2 ng p24 inoculum", "result": "approximately 80%"},
      {"measurement": "susceptibility to vicriviroc (phenotype)", "setting": "[6]; ADA-C2-V5res pseudovirus, U87-CD4-CCR5 cells", "result": "resistant phenotype"},
      {"measurement": "maximum inhibition (MI), plateau level", "setting": "[6]; high virus inocula, 70 ng p24", "result": "approximately 55%"},
      {"measurement": "susceptibility to vicriviroc", "setting": "[7]", "result": "completely susceptible"},
      {"measurement": "maximum inhibition", "setting": "[8]", "result": 100, "unit": "%"},
      {"measurement": "IC50", "setting": "[9]", "result": 0.025, "unit": "nM"},
      {"measurement": "IC50", "setting": "[10]", "result": 0.025, "unit": "nM"},
      {"measurement": "MI (maximum inhibition)", "setting": "[11]", "result": "approximately 50%"}
    ]}
  ]
}
